Data reported in patent US9662059B2, “Imaging agents for monitoring changes of dopamine receptors and methods of using thereof” (The Regents of the University of California, priority 2007, dated 2017).
Entries after “also recorded” stand apart in the source; their conditions may differ.

Key:
[1] = target: T1, D2R (Rattus norvegicus, UniProt P61169); assay: in vitro autoradiography of ^18F-fallypride binding in rat pancreas sections; design: from tissue; host or cells: rat pancreas, 10 μm cryosections
T1 sequence (P61169 whole entry): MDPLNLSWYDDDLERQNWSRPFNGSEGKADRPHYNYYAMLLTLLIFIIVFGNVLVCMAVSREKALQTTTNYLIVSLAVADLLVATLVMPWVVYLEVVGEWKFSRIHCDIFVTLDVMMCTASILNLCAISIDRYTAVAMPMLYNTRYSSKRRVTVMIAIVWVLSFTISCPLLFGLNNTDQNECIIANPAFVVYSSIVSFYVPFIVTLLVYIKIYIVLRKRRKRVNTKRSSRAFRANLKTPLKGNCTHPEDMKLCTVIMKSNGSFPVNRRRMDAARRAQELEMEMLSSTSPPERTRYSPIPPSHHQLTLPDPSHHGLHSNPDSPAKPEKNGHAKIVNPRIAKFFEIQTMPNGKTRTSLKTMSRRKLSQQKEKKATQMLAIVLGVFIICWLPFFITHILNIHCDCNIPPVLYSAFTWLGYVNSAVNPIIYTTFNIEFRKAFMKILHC
Protocol: Male Sprague-Dawley rats (200-250 g) or male Lewis rats (100-150 g) were anesthetized and decapitated. The brain and pancreas was rapidly removed and frozen in isopentane at −20° C. […] Slices were stored at −20° C. Slices were preincubated for 10 minutes in 50 mM Tris-HCl, 120 mM NaCl, 5 mM KCl buffer (pH 7.4). Slices were then incubated with 1-2 μCi/cc of ^18F-fallypride at 37° C. for 1 hour. […] After incubation, slices were rinsed twice for 2 min in ice-cold buffer, dipped briefly in ice-cold water, blown dry and laid out for autoradiography. Slides with tissue samples were exposed to a multipurpose storage phosphor screen for 24 hours and developed; the autoradiographs were generated using the Phosphor Cyclone Imager (Packard Instruments Co.) The amount of binding in the pancreas was measured as digital light units, DLU/mm^2. Autoradiographs were quantified using a computer-based image analysis system (OptiQuant Version 4.0 Packard Instruments Co., Boston Mass.).

[2] = arterial blood plasma at 3 hr; cited from earlier work
[3] = system: dopamine D2/D3 receptors; assay: human PET/CT imaging with ^18F-fallypride, standard uptake values in organs; format: in vivo; details: normal human subject
Protocol: The subjects were prepared by intravenous administration of ^18F-fallypride. After 80 minutes, the subjects were then positioned in the Siemen's PET/CT Biograph. The subjects were requested to lay still during the PET/CT data acquisition in the dimly lit quiet room but were free to open/shut their eyes. Static scans of 10 mins duration each were acquired at different bed positions.
The reconstructed dynamic PET data sets were first realigned to a reference summed image (50-80 minutes) to correct for patient motion and slight differences in positioning between the dynamic scans. These dynamic data sets were then used to create time-activity curves as well as pixel-by-pixel parametric images of the distribution volume ratio (DVR). The cerebellum (cerebellar lobes) was chosen as the reference region, having a minimal amount of specific binding to dopaminergic sites. The PET/CT data was analyzed to provide standard uptake values (SUV) in different organs which were identified using the CT image.

[4] = system: D2/D3 receptors; details: cited from earlier work
[5] = target: T2, D2R (Homo sapiens, UniProt P14416); assay: human PET imaging of the pancreas region with whole body HR+ PET scanner; format: in vivo; details: healthy volunteer, 80 mins post injection
T2 construct: from tissue; host or cells: pancreas region of a healthy human volunteer, in vivo
T2 sequence (P14416 whole entry): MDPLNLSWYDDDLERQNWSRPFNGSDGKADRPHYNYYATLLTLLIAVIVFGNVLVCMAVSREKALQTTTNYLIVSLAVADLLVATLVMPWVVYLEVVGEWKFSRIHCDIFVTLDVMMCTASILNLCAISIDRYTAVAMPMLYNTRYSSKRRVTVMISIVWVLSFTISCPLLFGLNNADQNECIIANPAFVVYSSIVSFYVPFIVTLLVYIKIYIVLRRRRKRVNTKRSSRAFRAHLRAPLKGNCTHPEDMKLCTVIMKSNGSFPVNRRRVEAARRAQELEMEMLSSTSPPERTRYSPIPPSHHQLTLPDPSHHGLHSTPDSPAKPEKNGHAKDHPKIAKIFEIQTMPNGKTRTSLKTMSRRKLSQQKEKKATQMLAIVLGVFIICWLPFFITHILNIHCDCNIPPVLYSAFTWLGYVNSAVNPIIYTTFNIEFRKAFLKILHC
Protocol: The subjects were prepared by placing one intravenous catheter in one arm for administration of the ^18F-fallypride. The subjects were then positioned in the PET scanner, and their alignment was marked for purposes of repositioning. The subjects were requested to lay still during the PET data acquisition in the dimly lit quiet room but were free to open/shut their eyes. The PET data was acquired with an EXACT HR+ PET scanner (in-plane FWHM=4.6 mm, axial FWHM=3.5 mm, axial FOV=15.52 cm). A 5-minute transmission scan using ^68Ge/^68Ga rod sources was acquired prior to administration of the radiopharmaceutical. Scanning was initiated with a 30-second bolus infusion of the radiopharmaceutical followed by a saline flush. A ^18F-fallypride dose of approximately 0.07 mCi/kg was administered to each of the subjects (subjects weight ranged between 70 to 95 kg). The dynamic scanning sequence consisted of 6 frames at 30 seconds, 7 frames at 1 minute, 5 frames at 2 minutes, 4 frames at 5 minutes and 4 frames at 10 minutes. The subject was marked for repositioning and then removed from the scanner for a 20-minute break period. A second dynamic sequence with 8 frames at 10 minutes each was acquired, yielding a total study time of approximately 3 hours. The data set was reconstructed using the ECAT v 7.2 software, with an OSEM algorithm (3 iterations, 16 subsets). […]

[6] = target: T1, D2R; assay: ex vivo autoradiography of brain and pancreas after intravenous ^18F-fallypride; format: in vivo, Lewis rats; design: The brain and pancreas were isolated and sectioned to 10 μm and 40 μm sections; from tissue; host or cells: brain (striata, cerebellum) and pancreas of living Lewis rats
Protocol: For ex vivo studies, Lewis rats were anesthetized with halothane and injected intravenously with ^18F-fallypride (0.1 to 0.2 mCi). The rats were then sacrificed at either 60 or 120 min post-injection. The brain and pancreas were isolated and sectioned to 10 μm and 40 μm sections. Slides with tissue samples were exposed to a multipurpose storage phosphor screen for 24 hours and developed; the autoradiographs were generated using the Phosphor Cyclone Imager (Packard Instruments Co.). Brain slices contained the striata, cerebellum and other regions known to contain D2R. The amount of binding to the striata, cerebellum and pancreas was measured as digital light units, DLU/mm^2. Autoradiographs were quantified using a computer-based image analysis system (OptiQuant Version 4.0 Packard Instruments Co., Boston Mass.).

[7] = target: T1, D2R; assay: ^18F-fallypride binding to pancreatic and brain sections of control and streptozotocin-treated rats; design: from tissue; host or cells: pancreas, striatum and cerebellum sections of male Sprague-Dawley rats; species or system male Sprague-Dawley rats
Protocol: Male Sprague-Dawley rats were used to develop a model for diabetes. Streptozotocin (STZ) (80 mg/kg body weight, i.p. injection) chemically destroyed beta-cells and induced diabetes in adult male Sprague-Dawley rats (Lai et al., Am J Physiol Endocrinol Metab 2007 292:E292). Blood glucose was monitored by tail vein-sampling. Diabetic rats were harvested 7 days after the onset of diabetes. ^18F-fallypride binding to pancreatic and brain sections was done for three pairs of STZ- and age-matched rats. […] Specific binding was determined for each animal by subtracting nonspecific binding, measured in digital light units per mm^2 (DLU/mm^2), from total binding for adjacent tissue sections in brain and pancreas.

[8] = rat killed at 60 min post-injection

With NCCc1ccc(O)c(O)c1 [Dopamine] the “displacement of ^18F-fallypride binding to the pancreas” value ([1]; rat pancreatic sections, competitor 100 μM) was “does not displace; also recorded: did not displace”.
In the case of C=CCN1CCC[C@H]1CNC(=O)c1cc(CCC[18F])cc(OC)c1OC [^18F-fallypride], the “plasma radioactivity that was ^18F-fallypride” value [2] is given as 30-40%, the “Ratio Organ/Ant Abd muscle, Pancreas- Body” value [3] is given as 2.83 and the “Ratio Organ/Ant Abd muscle, Pancreas- Head” value [3] is given as 2.73. The “Ratio Organ/Ant Abd muscle, Pancreas- Tail” value [3] was 3.10, the “SUV, Anterior Abdominal Muscle” value [3] was 0.6 and the “SUV, Gall bladder” value [3] was 123. The “SUV, Kidney” value [3] was 2.2, the “SUV, Liver” value [3] was 5.0 and the “SUV, Liver left lobe” value [3] was 4.9. For the same compound, the “SUV, Liver right lobe” value [3] was 5.1, the “SUV, Lung” value [3] was 1.1 and the “SUV, Pancreas- Body” value [3] was 1.7. The “SUV, Pancreas- Head” value [3] was 1.64, the “SUV, Pancreas- Tail” value [3] was 1.86 and the “SUV, Psoas Muscle” value [3] was 0.9. The “SUV, Spine (bone marrow)” value [3] was 2.8, the “SUV, Spleen” value [3] was 1.5 and the “decrease in binding with aging, all brain regions” value ([4]; human brain) was over 10 % per decade. For the same compound, the “BP, orbitofrontal cortex” value ([4]; younger subject) was 0.4, the “BP, putamen” value ([4]; younger subject) was 37 and the “Uptake of ^18F-fallypride in the human pancreas” value [5] was “comparable with that in the brain”. The “binding in the pancreas” value ([6]; Rat #2 killed at 120 min) was “significant amount of binding”, the “Ratio of pancreas to cerebellum” value [6, 8] was 5.3 and the “Ratio of striatum to cerebellum” value [6, 8] was 55.3. The “^18F-fallypride binding to rat pancreatic sections” value ([1]; 10 μm sections, 37° C., 1 hour) was “binds to rat pancreatic sections”, the “^18F-Fallypride binding, Cerebellum” value ([7]; Control rats) was 1597 ± 1382 DLU/mm^2 and the “^18F-Fallypride binding, Pancreas” value ([7]; Control rats) was 1393 ± 479 DLU/mm^2. For the same compound, the “^18F-Fallypride binding, Striatum” value ([7]; Control rats) was 121,167 ± 41,190 DLU/mm^2, the “change in ^18F-fallypride binding to control tissues striatum and cerebellum” value ([7]; STZ-treated rats vs control) was “no change” and the “reduction of specific ^18F-fallypride binding in the pancreas” value ([7]; STZ-treated rats vs control, p<0.05) was about 70%. For the same compound, the “^18F-Fallypride binding, Cerebellum” value ([7]; Streptozotocin-treated rats) was 1119 ± 632 DLU/mm^2, the “^18F-Fallypride binding, Striatum” value ([7]; Streptozotocin-treated rats) was 112,059 ± 35,271 DLU/mm^2 and the “^18F-Fallypride binding, Pancreas” value ([7]; Streptozotocin-treated rats, p < 0.05) was 310 ± 303 DLU/mm^2.
